Measured values taken from PubChem BioAssay AID1963422 (Molecular Pharmacology Branch, DTP, NCI, 2024).
pIC50: −log10 of the molar value.

System: 463943-066-T-J2-PDC complex spheroid growth
Test: Anticancer human tumor 463943-066-T-J2-PDC patient-derived colon adenocarcinoma cell line growth inhibition [Asc]
Details: for pIC50: curve of first compound; for viability, T/C: stronger effect = lower value
Method in brief: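 Tumor cells were grown as multicellular spheroids with stromal HUVEC and mesenchymal stem cells and treated singly or in combination. Concentrations fell in half-log steps from the clinical Cmax, or from 10 microM where none was known.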

[1] = second compound 0.00949 µM, first compound 0.00316 µM
[2] = second compound 0.00949 µM, first compound 0.01 µM
[3] = second compound 0.00949 µM, first compound 0.0316 µM
[4] = second compound 0.00949 µM, first compound 0.1 µM
[5] = second compound 0.03 µM, first compound 0.00316 µM
[6] = second compound 0.03 µM, first compound 0.01 µM
[7] = second compound 0.03 µM, first compound 0.0316 µM
[8] = second compound 0.03 µM, first compound 0.1 µM
[9] = second compound 0.0949 µM, first compound 0.00316 µM
[10] = second compound 0.0949 µM, first compound 0.01 µM
[11] = second compound 0.0949 µM, first compound 0.0316 µM
[12] = second compound 0.0949 µM, first compound 0.1 µM
[13] = second compound 0.3 µM, first compound 0.00316 µM
[14] = second compound 0.3 µM, first compound 0.01 µM
[15] = second compound 0.3 µM, first compound 0.0316 µM
[16] = second compound 0.3 µM, first compound 0.1 µM
[17] = second compound 0.949 µM, first compound 0.00316 µM
[18] = second compound 0.949 µM, first compound 0.01 µM
[19] = second compound 0.949 µM, first compound 0.0316 µM
[20] = second compound 0.949 µM, first compound 0.1 µM
[21] = second compound 3 µM, first compound 0.00316 µM
[22] = second compound 3 µM, first compound 0.01 µM
[23] = second compound 3 µM, first compound 0.0316 µM
[24] = second compound 3 µM, first compound 0.1 µM
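Also: compound exposure lasted 7 days.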
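For viability, T/C in this document: 100% = DMSO vehicle control wells.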

Structure (SMILES): COc1c(OCCCN2CCOCC2)ccc2c3n(c(=NC(=O)c4cnc(N)nc4)nc12)CCN3 + CCN1C(C(=O)NC23CCC(C(=O)O)(CC2)CC3)C(c2cccc(Cl)c2F)C2(C(=O)Nc3cc(Cl)ccc32)C12CCCCC2
- pIC50 (second compound 0.00949 µM): 6.39
- pIC50 (second compound 0.03 µM): 6.57
- pIC50 (second compound 0.0949 µM): 6.64
- pIC50 (second compound 0.3 µM): 7.15
- pIC50 (second compound 0.949 µM): 7.35
- pIC50 (second compound 3 µM): 7.22
- viability, T/C [1]: 89.5%
- viability, T/C [2]: 82.9%
- viability, T/C [3]: 74%
- viability, T/C [4]: 69.2%
- viability, T/C (second compound 0.00949 µM, first compound 0.316 µM): 51.2%
- viability, T/C (second compound 0.00949 µM, first compound 1 µM): 39.4%
- viability, T/C [5]: 95.3%
- viability, T/C [6]: 88.5%
- viability, T/C [7]: 71.5%
- viability, T/C [8]: 61.2%
- viability, T/C (second compound 0.03 µM, first compound 0.316 µM): 50.3%
- viability, T/C (second compound 0.03 µM, first compound 1 µM): 33.7%
- viability, T/C [9]: 87.3%
- viability, T/C [10]: 84.1%
- viability, T/C [11]: 71.4%
- viability, T/C [12]: 59.3%
- viability, T/C (second compound 0.0949 µM, first compound 0.316 µM): 47.4%
- viability, T/C (second compound 0.0949 µM, first compound 1 µM): 33.6%
- viability, T/C [13]: 73%
- viability, T/C [14]: 72.5%
- viability, T/C [15]: 61.9%
- viability, T/C [16]: 44.4%
- viability, T/C (second compound 0.3 µM, first compound 0.316 µM): 37.1%
- viability, T/C (second compound 0.3 µM, first compound 1 µM): 32%
- viability, T/C [17]: 68.5%
- viability, T/C [18]: 62.5%
- viability, T/C [19]: 53.4%
- viability, T/C [20]: 42.2%
- viability, T/C (second compound 0.949 µM, first compound 0.316 µM): 35.1%
- viability, T/C (second compound 0.949 µM, first compound 1 µM): 30.4%
- viability, T/C [21]: 65.3%
- viability, T/C [22]: 64.4%
- viability, T/C [23]: 53.7%
- viability, T/C [24]: 45.4%
- viability, T/C (second compound 3 µM, first compound 0.316 µM): 39.1%
- viability, T/C (second compound 3 µM, first compound 1 µM): 29.8%

Structure (SMILES): NC1CCC(NC2CC2c2ccccc2)CC1 (centres undefined) + CCN1C(C(=O)NC23CCC(C(=O)O)(CC2)CC3)C(c2cccc(Cl)c2F)C2(C(=O)Nc3cc(Cl)ccc32)C12CCCCC2
- pIC50 (second compound 0.00949 µM): < 7.00
- pIC50 (second compound 0.03 µM): < 7.00
- pIC50 (second compound 0.0949 µM): < 7.00
- pIC50 (second compound 0.3 µM): < 7.00
- pIC50 (second compound 0.949 µM): < 7.00
- pIC50 (second compound 3 µM): < 7.00
- viability, T/C (second compound 0.00949 µM, first compound 0.000316 µM): 89.9%
- viability, T/C (second compound 0.00949 µM, first compound 0.001 µM): 76.8%
- viability, T/C [1]: 87.3%
- viability, T/C [2]: 91.6%
- viability, T/C [3]: 87.1%
- viability, T/C [4]: 89%
- viability, T/C (second compound 0.03 µM, first compound 0.000316 µM): 88.8%
- viability, T/C (second compound 0.03 µM, first compound 0.001 µM): 79.3%
- viability, T/C [5]: 83.1%
- viability, T/C [6]: 82.5%
- viability, T/C [7]: 86.2%
- viability, T/C [8]: 75.3%
- viability, T/C (second compound 0.0949 µM, first compound 0.000316 µM): 84.6%
- viability, T/C (second compound 0.0949 µM, first compound 0.001 µM): 80.8%
- viability, T/C [9]: 77.1%
- viability, T/C [10]: 82.8%
- viability, T/C [11]: 82.4%
- viability, T/C [12]: 75.4%
- viability, T/C (second compound 0.3 µM, first compound 0.000316 µM): 78.2%
- viability, T/C (second compound 0.3 µM, first compound 0.001 µM): 77.3%
- viability, T/C [13]: 71.5%
- viability, T/C [14]: 79%
- viability, T/C [15]: 74.7%
- viability, T/C [16]: 71.9%
- viability, T/C (second compound 0.949 µM, first compound 0.000316 µM): 67.7%
- viability, T/C (second compound 0.949 µM, first compound 0.001 µM): 71.3%
- viability, T/C [17]: 66.7%
- viability, T/C [18]: 67.2%
- viability, T/C [19]: 71.5%
- viability, T/C [20]: 65.8%
- viability, T/C (second compound 3 µM, first compound 0.000316 µM): 69.4%
- viability, T/C (second compound 3 µM, first compound 0.001 µM): 68%
- viability, T/C [21]: 66.5%
- viability, T/C [22]: 65.8%
- viability, T/C [23]: 71%
- viability, T/C [24]: 64.3%
